# Experiments:
# Assay in all cases: ProQinase radiometric kinase panel
# Details in all cases: mean of 2 exp.
# LIMK1 = LIMK1 (Homo sapiens, UniProt P53667)
# Description: Gini coefficients were calculated and the Lorenz curve (Fig 3B) was plotted by applying the Microsoft Excel spreadsheet provided by Graczyk [44].
# radiometric protein kinase assays.
# MST1 = MST1 (Homo sapiens, UniProt Q13043)
# CK2-alpha2 = CK2-alpha2 (Homo sapiens, UniProt P19784)
# Sequence of CK2-alpha2 (P19784 whole entry): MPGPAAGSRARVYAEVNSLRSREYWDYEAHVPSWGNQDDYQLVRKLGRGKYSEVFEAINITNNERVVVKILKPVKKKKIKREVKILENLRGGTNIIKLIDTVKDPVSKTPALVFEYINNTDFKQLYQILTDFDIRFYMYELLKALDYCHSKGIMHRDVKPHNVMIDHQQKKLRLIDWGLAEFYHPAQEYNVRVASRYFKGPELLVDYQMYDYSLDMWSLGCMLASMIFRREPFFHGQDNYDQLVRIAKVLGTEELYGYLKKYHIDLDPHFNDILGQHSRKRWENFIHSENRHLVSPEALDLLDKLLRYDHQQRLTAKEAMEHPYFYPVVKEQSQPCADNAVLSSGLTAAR
# Sequence of MST1 (Q13043 whole entry): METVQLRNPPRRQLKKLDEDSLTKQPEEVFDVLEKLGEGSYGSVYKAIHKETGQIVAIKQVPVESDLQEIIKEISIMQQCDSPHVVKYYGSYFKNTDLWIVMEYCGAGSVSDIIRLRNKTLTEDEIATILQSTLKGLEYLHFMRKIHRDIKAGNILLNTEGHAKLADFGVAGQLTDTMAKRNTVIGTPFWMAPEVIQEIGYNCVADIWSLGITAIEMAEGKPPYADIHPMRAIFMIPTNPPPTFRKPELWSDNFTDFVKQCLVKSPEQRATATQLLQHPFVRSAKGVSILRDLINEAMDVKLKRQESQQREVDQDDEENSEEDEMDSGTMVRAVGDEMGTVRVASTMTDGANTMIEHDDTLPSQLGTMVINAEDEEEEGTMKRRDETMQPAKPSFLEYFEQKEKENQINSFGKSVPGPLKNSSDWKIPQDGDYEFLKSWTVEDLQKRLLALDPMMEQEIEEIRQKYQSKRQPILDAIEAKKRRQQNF
# Sequence of LIMK1 (P53667 whole entry): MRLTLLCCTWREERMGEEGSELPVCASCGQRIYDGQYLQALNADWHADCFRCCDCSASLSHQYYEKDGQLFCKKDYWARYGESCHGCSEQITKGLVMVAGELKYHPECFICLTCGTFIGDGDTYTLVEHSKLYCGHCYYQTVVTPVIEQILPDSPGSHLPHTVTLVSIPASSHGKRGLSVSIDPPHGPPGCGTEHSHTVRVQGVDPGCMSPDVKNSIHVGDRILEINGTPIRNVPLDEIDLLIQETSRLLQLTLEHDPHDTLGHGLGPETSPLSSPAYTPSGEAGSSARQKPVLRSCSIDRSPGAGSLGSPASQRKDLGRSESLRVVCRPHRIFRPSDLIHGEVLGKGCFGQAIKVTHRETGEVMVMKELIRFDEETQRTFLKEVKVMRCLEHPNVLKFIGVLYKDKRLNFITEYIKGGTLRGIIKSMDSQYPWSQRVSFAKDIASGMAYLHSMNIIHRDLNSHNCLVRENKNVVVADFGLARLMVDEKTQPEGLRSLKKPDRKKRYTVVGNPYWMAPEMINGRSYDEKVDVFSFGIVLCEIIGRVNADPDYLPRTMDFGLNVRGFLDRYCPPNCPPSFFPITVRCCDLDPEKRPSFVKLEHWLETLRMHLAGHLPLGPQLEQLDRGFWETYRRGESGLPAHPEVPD
smiles,measurement,setting,value
COc1ccc2c3ccnc(Cl)c3n(CC#N)c2c1 [AnnH75],"residual activity at 1 µM, Mean",LIMK1,57 % of control
same,"residual activity at 1 µM, Mean",MST1,91 % of control
same,"residual activity at 1 µM, Mean",CK2-alpha2,101 % of control

# Source: publication PMC4508061, “Selectivity Profiling and Biological Activity of Novel β-Carbolines as Potent and Selective DYRK1 Kinase Inhibitors” (PLoS ONE, 2015)
